Assay results from patent publication US20050118262A1, “Controlled release formulation” (priority 2003, published 2005).

Test: Water solubility of selodenoson
Type: physicochemical

solubility in water (water): soluble in water
SMILES: CCNC(=O)[C@H]1O[C@@H](n2cnc3c(NC4CCCC4)ncnc32)[C@H](O)[C@@H]1O [selodenoson, N^6-cyclopentyl-5′-(N-ethyl)carboxamidoadenosine]
solubility in water under acidic conditions (water under acidic conditions): highly soluble in water under acidic conditions
